The values that follow come from patent US7629365B2 (Glaxo Group Limited, priority 2006, dated 2009).

The data set is described as follows: Compound solubility determination in FaSSIF and FeSSIF. The class given is physicochemical. The following applies: thermodynamic from solid. The method, then:
Compound Solubility Determination
An amount of 3 mg solid compound with LC-MS purity ≧95% was required. This amount was split between 3 different glass vials (1.8 ml volume each), placing 1 mg compound into each one.
Organic solvents of HPLC grade were used. Ultra pure water (Milli-Q grade) was used. Buffers were prepared with ultra pure water and filtered using 0.45μ nylon filters. The compositions of each solvent employed in this assay are described below (part III).
2. Determination of Equilibrium Solubility (Assuming Chemical Stability in the Desired Solvent is Not a Problem).
For each of the three vial samples prepared as described above, in which the amount of compound was totally dissolved, the following procedure was subsequently carried out: • a) A small amount (approx. 0.1 mg) of additional solid compound was added to the vial to maintain an excess of the compound in the mixture in the form of undissolved solid. • b) The samples were magnetically stirred for 24 hr. If required, additional solid compound (0.1 mg) was added to maintain excess of it and then the samples were stirred again. • c) Then the samples were filtered (Millipore Milex filters nylon 0.2 um) and three aliquots were taken (one from each of the three vials) and analysed by LC-MS. • d) The pH of the final solution in each sample was measured with a pH-meter (WTW pH330i and a pH-electrode Sentix 41). 3. LC-MS Assay for Analytical Quantification
All filtered aliquots were analysed by LC-MS. The analysis was carried out with a Luna 5 μC18(2) column 4.6×150 mm, using a HP1100HPLC instrument interfaced with a Waters ZMD-2000 MS spectrometer. The concentration of the final sample as prepared above was calculated from that of a reference calibration curve obtained from serial dilutions of a 2 mM solution of the compound under investigation in DMSO (Aldrich cat. ref.: 27685-5) stock solution.
The analysis of all LC-MS data was performed with MassLynx 3.4 software. Statistical and graphic analysis of data was performed using Microsoft Excel. The concentration (μM) and solubility (μg/ml) for each compound was calculated using the peak areas from the sample and those from the calibration curve.
• A) FaSSIF is a solvent which simulates the Fasted State of the Intestinal Fluid. (FaSSIF: Fasted State Simulated Intestinal Fluid).
FaSSIF Preparation Procedure. 1. Preparation of 1 L of pH 6.8 Buffer Solution • 1.a. 3.947 g potassium phosphate and 16.401 g potassium chloride were dissolved in approx. 900 ml of water. • 1.b. The pH was adjusted to 6.8 by slow addition of 0.1 N sodium hydroxide (Scharlau SO 0441010C) under magnetic stirring. • 1.c The mixture was diluted to a volume of 1000 ml with water. 2. Preparation of 100 ml of FaSSIF • 2.a. 269 mg NaTaurochol. (Aldrich T-4009) was dissolved in approx. 80 ml of pH 6.8 buffer. • 2.b. 114 mg lecithin (Sigma P-7318) was dissolved in this NaTaurochol/buffer solution (this was carried out with a nitrogen filled glove bag). • 2.c. The resulting mixture was diluted to a volume of 100 ml with further pH 6.8 buffer • 2.d. The final solution was covered with a layer of nitrogen or alternative inert gas. The bottle was sealed with parafilm and stored at 4° C. • B) FeSSIF is a solvent which simulates the Fed State of the Intestinal Fluid. (FeSSIF: Fed State Simulated Intestinal Fluid).
FeSSIF Preparation Procedure. 1. Prepare 1 L of pH 5 Buffer Solution • 1.a. 15.2 g potassium chloride and 8.25 ml glacial acetic acid were dissolved in approx. 900 ml of water. • 1.b. The pH was adjusted to 5 by slow addition of NaOH 0.1N (Scharlau SO 0441010C) under magnetic stirring. • 1.c The mixture was diluted to a volume of 1000 ml with water. 2. Preparation of 100 mL of FeSSIF • 2.a. 806.5 mg NaTaurochol (Aldrich T-4009) was dissolved in 80 ml of pH 5 buffer. • 2.b. 288 mg lecithin (Sigma P-7318) was dissolved in this NaTaurochol/buffer solution (carried out with a nitrogen filled glove bag). • 2.c. […]

The mark [1] stands for this setting: FaSSIF (Fasted State Simulated Intestinal Fluid), pH 6.8 buffer, read-out: Solubility in FaSSIF.
[2] abbreviates: FeSSIF (Fed State Simulated Intestinal Fluid), pH 5.0 buffer, read-out: Solubility in FeSSIF.

Converted amounts (≈) assume the structure as drawn. Read-outs that look alike come from different tables or passages of the source.

Broadly, the solubility is the dissolved amount per volume that the medium holds. As for `CON=Cc1[nH]c(C)c(Cl)c(=O)c1-c1ccc(Oc2ccc(OC(F)(F)F)cc2)cc1` (single isomer, unassigned) [Example 6, 5-Chloro-6-methyl-4-oxo-3-[4-({4-[(trifluoromethyl)oxy]phenyl}oxy)phenyl]-1,4-dihydro-2-pyridinecarbaldehyde-O-methyloxime], the solubility at 24 h under setting [1] is 5 to 10 µg/mL (≈ 11 to 22.1 µM) and the solubility at 24 h under setting [2] is 10 to 50 µg/mL (≈ 22.1 to 110 µM).
For `Cc1[nH]c(C=NO)c(Cl)c(=O)c1-c1ccc(Oc2ccc(OC(F)(F)F)cc2)cc1` (single isomer, unassigned) [Example 7, 3-chloro-6-methyl-4-oxo-5-[4-({4-[(trifluoromethyl)oxy]phenyl}oxy)phenyl]-1,4-dihydro-2-pyridinecarbaldehyde oxime], the solubility at 24 h is, setting by setting: under setting [1], 1 to 5 µg/mL (≈ 2.28 to 11.4 µM); under setting [2], 5 to 10 µg/mL (≈ 11.4 to 22.8 µM).
Take `Cc1[nH]c(CO)c(-c2ccc(Oc3ccc(OC(F)(F)F)cc3)cc2)c(=O)c1Cl` [Example 1, 3-Chloro-6-(hydroxymethyl)-2-methyl-5-[4-({4-[(trifluoromethyl)oxy]phenyl}oxy)phenyl]-4(1H)-pyridinone]: the solubility at 24 h is 1 to 5 µg/mL (≈ 2.35 to 11.7 µM) under setting [1] and 5 to 10 µg/mL (≈ 11.7 to 23.5 µM) under setting [2].
The like results for `Cc1[nH]c(CO)c(-c2ccc(Oc3cccc(C(F)(F)F)c3)cc2)c(=O)c1Cl` [Example 2] were, in that order, 1 to 5 µg/mL (≈ 2.44 to 12.2 µM) and 1 to 5 µg/mL (≈ 2.44 to 12.2 µM).
The like results for `Cc1[nH]c(CO)c(Cl)c(=O)c1-c1ccc(Oc2ccc(OC(F)(F)F)cc2)cc1` [Example 3, 3-chloro-2-(hydroxymethyl)-6-methyl-5-[4-({4-[(trifluoromethyl)oxy]phenyl}oxy)phenyl]-4(1H)-pyridinone] were, in that order, 5 to 10 µg/mL (≈ 11.7 to 23.5 µM) and 10 to 50 µg/mL (≈ 23.5 to 117 µM).
The like results for `Cc1[nH]c(CO)c(Cl)c(=O)c1-c1ccc(Oc2cccc(C(F)(F)F)c2)cc1` [Example 4, 3-chloro-2-(hydroxymethyl)-6-methyl-5-(4-{[3-(trifluoromethyl)phenyl]oxy}phenyl)-4(1H)-pyridinone] were, in that order, 1 to 5 µg/mL (≈ 2.44 to 12.2 µM) and 10 to 50 µg/mL (≈ 24.4 to 122 µM).
With `Cc1[nH]c(/C=N/O)c(-c2ccc(Oc3ccc(OC(F)(F)F)cc3)cc2)c(=O)c1Cl` [Example 5, 5-Chloro-6-methyl-4-oxo-3-[4-({4-[(trifluoromethyl)oxy]phenyl}oxy)phenyl]-1,4-dihydro-2-pyridinecarbaldehyde oxime], the solubility at 24 h was 5 to 10 µg/mL (≈ 11.4 to 22.8 µM) under setting [1] and 10 to 50 µg/mL (≈ 22.8 to 114 µM) under setting [2].
On to `Cc1[nH]c(CCCO)c(-c2ccc(Oc3ccc(OC(F)(F)F)cc3)cc2)c(=O)c1Cl` [Example 8, 3-chloro-6-(3-hydroxypropyl)-2-methyl-5-[4-({4-[(trifluoromethyl)oxy]phenyl}oxy)phenyl]-4(1H)-pyridinone], for which the solubility at 24 h by setting is: under setting [1], 10 to 50 µg/mL (≈ 22 to 110 µM); under setting [2], 10 to 50 µg/mL (≈ 22 to 110 µM).
